From publication PMC8708274, “Unveiling the Membrane and Cell Wall Action of Antimicrobial Cyclic Lipopeptides: Modulation of the Spectrum of Activity” (Pharmaceutics, 2021)
Like-named read-outs stand apart in the source and are kept apart here. Positions of bridges follow the written chain, without caps; N, C: chain ends. Non-standard residues stand in square brackets, D forms with d. Residues, ends and D or L forms follow the SMILES beside them. *: point of attachment. Lauroyl = CCCCCCCCCCCC(=O)*; Nonanoyl = CCCCCCCCC(=O)*; Nle = CCCC[C@H](N)C(=O)O; Octanoyl = CCCCCCCC(=O)*; Dab = NCC[C@H](N)C(=O)O; Hexanoyl = CCCCCC(=O)*

What was measured:
[1] = Kinetics of insertion into monolayers; format: binding; settings: 25 min after injection, 10 mM Tris pH 7.4, 25 °C, average of three independent experiments (error < 10%); for Increase in surface pressure (Δπ), POPE/POPG: POPE/POPG 6:4, initial pressure 32 mN·m^−1, peptide 0.48 μM; for Increase in surface pressure (Δπ), POPC / Increase in surface pressure (Δπ), POPG: initial pressure 32 mN·m^−1, peptide 0.48 μM
Experimental: (§1) Monolayer studies were performed at room temperature (25 °C) on a monolayer system (NIMA Technology, Coventry, UK) by using a cylindrical PTFE (Teflon®, Wilmington, DE, USA) trough (5 cm diameter) containing a continuously stirred aqueous phase (12 mL, 10 mM Tris pH 7.4) and a Wilhelmy platinum plate connected to an electrobalance. The system was enclosed in a Plexiglass box to reduce surface contamination, and before each run, the plate and the trough were cleaned with hot water at >70 °C to avoid carryover of lipid or peptide. Monolayers of POPG, POPE/POPG (6:4), POPC, or LPS were formed by applying small drops of the lipid stock solutions in CHCl3 on the aqueous subphase with a microsyringe (Hamilton Co., Reno, NV, USA) to achieve a surface pressure of 32 mN·m^−1. After 10 min, allowing for solvent evaporation, a known aliquot of peptide was added without disturbance of the monolayer via an inlet port, and the surface pressure was continuously monitored.

[2] = Kinetics of insertion into monolayers; format: binding, Salmonella enterica serotype Minnesota Re 595; settings: initial pressure 32 mN·m^−1, peptide 0.48 μM, 25 min after injection, 10 mM Tris pH 7.4, 25 °C, average of three independent experiments (error < 10%)
Experimental: as §1

[3] = test system: Escherichia coli ATTC 25922; format: cell-based
Experimental: (§2) The minimal peptide concentration required to prevent the growth of a given test organism was determined after incubation overnight at 37 °C and was defined as the MIC. Activity was determined in representative bacteria, Escherichia coli ATTC 25922, Pseudomonas aeruginosa ATTC 27853, and Staphylococcus aureus ATTC 25923, using the broth microdilution method. Serial-two-fold dilutions of peptide (from 0.06 to 32 μg/mL) were performed in Mueller–Hinton broth (MHB) culture medium in sterile 96-well polypropylene microtiter plates inoculated with a final concentration of 5 × 10^5 CFU·mL^−1 of bacteria in each well. Bacteria were in the pre-exponential phase. Each determination was done by triplicate. In order to be considered acceptable, the three MIC results have to differ in only in one well, and the result was always given as the higher of the three. Drug-free and microorganism-free wells were used as positive and negative controls, respectively. Bacterial growth was visually determined on the basis of turbidity.

[4] = test system: Pseudomonas aeruginosa ATTC 27853; format: cell-based
Experimental: as §2

[5] = test system: Staphylococcus aureus ATTC 25923; format: cell-based
Experimental: as §2

[6] = broth microdilution, MHB, 5 × 10^5 CFU/mL, overnight 37 °C, triplicate, higher of the three

SMILES | Increase in surface pressure (Δπ), POPE/POPG [1] [mN·m^−1] | Increase in surface pressure (Δπ), POPC [1] [mN·m^−1] | Increase in surface pressure (Δπ), POPG [1] [mN·m^−1] | Increase in surface pressure (Δπ), LPS [2] [mN·m^−1] | MIC EC ([3]; ATTC 25922) [µM] | MIC EC [3, 6] [µg/mL] | MIC PA ([4]; ATTC 27853) [µM] | MIC PA [4, 6] [µg/mL] | MIC SA ([5]; ATTC 25923) [µM] | MIC SA [5, 6] [µg/mL]
CCCCCCCCC(=O)N[C@@H](CCN)C(=O)N[C@H](C(=O)N[C@@H](CCN)C(=O)N[C@H]1CSSC[C@H](C(N)=O)NC(=O)[C@H](CCN)NC(=O)[C@H](CCN)NC(=O)[C@H](CCCC)NC(=O)[C@@H](Cc2ccccc2)NC(=O)[C@H](CCN)NC1=O)[C@@H](C)O [spB-6] (Nonanoyl-[Dab]T[Dab]C[Dab][dF][Nle][Dab][Dab][dC]-NH2; disulfide 4-10) | 5.0 | 0.4 | 6.0 | 10.8 | 1.6 | 2 | 0.82 | 1 | 13 | 16
CCCCCCCCCCCC(=O)N[C@@H](CCN)C(=O)N[C@H](C(=O)N[C@@H](CCN)C(=O)N[C@H]1CSSC[C@H](C(N)=O)NC(=O)[C@H](CCN)NC(=O)[C@H](CCCNC(=N)N)NC(=O)[C@H](CCCC)NC(=O)[C@@H](Cc2ccccc2)NC(=O)[C@H](CCN)NC1=O)[C@@H](C)O [spB-9] (Lauroyl-[Dab]T[Dab]C[Dab][dF][Nle]R[Dab][dC]-NH2; disulfide 4-10) | 6.0 | 2.2 | 3.4 | 11.1 | 3.0 | 4 | 3.0 | 4 | 1.5 | 2
CCCCCC(=O)N[C@@H](CCN)C(=O)N[C@H](C(=O)N[C@@H](CCN)C(=O)N[C@H]1CSSC[C@H](C(N)=O)NC(=O)[C@H](CCN)NC(=O)[C@H](CCN)NC(=O)[C@H](CC(C)C)NC(=O)[C@@H](CC(C)C)NC(=O)[C@H](CCN)NC1=O)[C@@H](C)O [spE-1] (Hexanoyl-[Dab]T[Dab]C[Dab][dL]L[Dab][Dab][dC]-NH2; disulfide 4-10) | 4.1 | 0.3 | 2.8 | 10.6 | > 28 | > 32 | > 28 | > 32 | > 28 | > 32
CCCCCCCC(=O)N[C@@H](CCN)C(=O)N[C@H](C(=O)N[C@@H](CCN)C(=O)N[C@H]1CSSC[C@H](C(N)=O)NC(=O)[C@H](CCN)NC(=O)[C@H](CCN)NC(=O)[C@H](CC(C)C)NC(=O)[C@@H](CC(C)C)NC(=O)[C@H](CCN)NC1=O)[C@@H](C)O [spE-2] (Octanoyl-[Dab]T[Dab]C[Dab][dL]L[Dab][Dab][dC]-NH2; disulfide 4-10) | 6.4 | 0.6 | 4.3 | 9.5 | 14 | 16 | 3.4 | 4 | > 27 | > 32
